Test results reported in patent US20080311103A1, “Anti-Inflammatory Peptides and Methods of Use Thereof” (YEDA RESEARCH AND DEVELOPMENT CO. LTD. at THE WEIZMANN …, priority 2004, published 2008).
Where two headings read alike, the source gives them in different places.

Legend:
[1] = system: mice sensitized with oxazolone; type: in vivo, mouse; details: ear measured 24 hours after oxazolone challenge, BALB/c mice
Method: Groups of 5 female inbred BALB/c mice (The Jackson Laboratory, Bar Harbor, Me.) were sensitized on the shaved abdominal skin with 2% oxazolone (100 μl) dissolved in acetone/olive oil [4:1 (vol/vol)] applied topically. Delayed type hypersensitivity (DTH) was elicited 5 days later by challenging the mice with 0.5% oxazolone in acetone/olive oil (10 μl given topically to each side of the ear). A constant area of the ear was measured immediately before and 24 hours after the challenge using a Mitutoyo engineer's micrometer. The percent inhibition of DTH is calculated as follows:
% Inhibition=[1-{(treated−negative control)/(positive control−negative control)}]×100.
The positive control is the DTH reaction to oxazolone elicited in sensitized mice without treatment. The negative control is the background swelling produced by the oxazolone antigen in naïve non-sensitized mice.
Peptides Nos. 1-5 were given to the mice by mini perfusion pumps (alzet osmotic pump model 2001), which contained the indicated peptide (40 μg; 200 μl). The pumps were implanted under the mouse skin one day before oxazolone sensitization and they released the peptide in a rate of 1 μl per hour (0.2 μg/hour) for 7 days.
Peptides Nos. 6-10 were given to the mice by subcutaneously injection (1 μg or 10 μg per mouse), every day, starting at one day before oxazolone sensitization and ending at day 5 post DTH initiation.

T cells = assay: Chemotaxis assay: T cell migration toward SDF-1α; type: cell-based; details: concentration range 10-1000 ng/ml; SDF-1α 250 ng/ml; 3 hr
Method: The migration of ^51-[Cr]-labeled T cells was examined in […] Transwell chemotaxis apparatus (6.5-mm diameter; Corning, N.Y.), consisting of two compartments separated by polycarbonate filters (5 μm pore size) pretreated (1 hr, 37° C.) with FN (25 μg/ml). ^51-[Cr]-labeled T cells (2×10^5 in 100 μl of RPMI containing 0.1% BSA and antibiotics), which were pre-incubated with the indicated concentrations of peptides (30 min, 37° C.), were added to the upper chambers. The bottom chambers contained 0.6 ml of the same media, with or without human Stromal cell-Derived Factor-1α (SDF-1α; 250 ng/ml). After incubation at 37° C. for 3 hr (7.5% CO2-humidified atmosphere), cells that had transmigrated into the lower wells were collected, centrifuged, and lysed (in 100 μl of distilled water containing 1 M NaOH and 0.1% Triton X-100), and the radioactivity in the resulting supernatants was determined with a γ-counter. The percentage (±SD) of cell migration was calculated as the radioactivity counts in the lysates of the lower chambers (representative of the migrating cells) divided by the total counts (representative of 2×10^5 cells).

Jurkat and THP-1 cells = assay: TNFα secretion by PMA/PHA induced Jurkat and THP-1 cells; type: cell-based, human; details: peptide 1 μg/ml; 48 hours; ELISA
Method: Jurkat cells human T cell lymphoma line) (2×10^6 cells/ml) cultured in RPMI-1640 supplemented with 10% FCS were activated with PMA (50 ng/ml) and phytohaemagglutinin PHA (4 µg/ml) for 6 hours at 37° C. (7.5% CO2-humidified atmosphere). Thereafter, the cells were washed, plated on 24-well plates (10^6 cells/well in 0.5 ml), and incubated (1 hour at 37° C., 7.5% CO2-humidified atmosphere) with the indicated concentrations of peptides 1-5. Following the incubation, THP-1 cells (human monocytic cell line derived from a patient with acute monocytic leukaemia; 1.25×10^5 cells/0.5 ml/well) were added to the wells. After 48 hours, the supernatants were collected and their TNF[…] content was determined by ELISA using anti TNF[…] mAb (Pharmingen; San Diego, Calif.) according to the manufacturer's instructions.

[2] = system: anti-CD3 antibody induced TNFα secretion from T cells; assay: TNFα secretion by anti-CD3 activated T cells; type: cell-based, human; details: peptide 100 ng/ml; 24 hours; ELISA; FIG. 7A
Method: (§1) Human T cells were purified and maintained in culture (RPMI containing 10% FCS, 1% Pyruvate, 1% glutamine, 1% antibiotics, 7.5% CO2, humidified atmosphere) for 15 hr before they were transferred to RPMI and activated (2 hr, 37° C.) with the indicated concentrations of the peptides. The cells were then plated (1.5×10^6 cells/0.5 ml/well) in 24 wells plates (non-tissue culture grade) precoated with anti-CD3 mAb in order to stimulate the cells to secrete cytokines. After 24 hours, the supernatants were collected and their cytokine content (TNFα and IFNγ) was determined by ELISA using anti-IFNγ and anti TNFα mAb (Pharmingen; San Diego, Calif.) according to the manufacturer's instructions.

[3] = system: anti-CD3 antibody induced IFNγ secretion from T cells; assay: IFNγ secretion by anti-CD3 activated T cells; type: cell-based, human; design: concentration or dose not given beside the values; details: 24 hours; ELISA; FIG. 7B
Method: as §1

NF-κB = assay: Nuclear translocation of NF-κB in T cells (Western blot); type: cell-based; details: peptide 100 ng/ml for 2 hours, then anti-CD3 mAb 24 hr; human T cells
Excerpt: To address the modulatory role of the wound fluid peptides on the signal transduction cascade leading to regulation of T-cell secretion of TNF-α(and IFN-γ, the nuclear translocation of NF-κB was detected by probing nuclear and cytoplasmic T-cell extracts using mAb specific for the p65 subunit of NF-κB. The nuclear protein Lamin B was used as continuatively expressed control protein for the quantification of protein amounts.
Human T cells. T cells were purified from the peripheral blood of healthy human donors (Blood Bank; Tel-Hashomer, Israel). The whole blood was incubated (20 min, 22° C.) with RosetteSep™ human T-cell enrichment cocktail (StemCell Technologies, Vancouver, BC, Canada). The remaining unsedimented cells were then loaded onto Lymphocyte Separation Medium (ICN Biomedicals; Belgium), isolated by density centrifugation, and washed with PBS. The purified cells (>95% CD3^+ T cells) so obtained were cultured in RPMI containing antibiotics and 10% heat-inactivated FCS. Western blot analysis of T-cell nuclear extracts. Purified T cells (5×10^6) were preincubated with the peptides (100 ng/ml) for 2 hours (37° C. in a 7% CO2, humidified atmosphere). The cells were then replated in 24-well plates pre-coated with anti-CD3 mAb for 24 hr (37° C. in a 7% CO2, humidified atmosphere). T cells were lysed in 10 mM HEPES, 1.5 mM MgCl2, 1 mM dithiothreitol (DTT), 1 mM PMSF, 0.5% Nonidet P-40. The lysates were incubated on ice for 10 min and centrifuged at 2000 rpm for 10 min at 4° C. The supernatants (cytoplasmic extracts) were transferred and the pellet (nuclei) was suspended in buffer containing 30 mM HEPES, 450 mM NaCl, 25% Glycerol, 0.5 mM EDTA, 6 mM DTT, 12 mM MgCl2 1 mM PMSF, 10 μg/ml leupeptin, 10 μg/ml pepstatin, 1% phosphatase inhibitor cocktail, and the suspension was incubated on ice for 30 min. The lysates were cleared by centrifugation (30 min, 14×10^3 rpm, 4° C.), and the resulting supernatants analyzed for protein content. […]

BALB/C mice [4] = assay: Con A-induced hepatic injury (acute hepatitis model); type: in vivo; details: 50 μg/mouse intraperitoneally, 2 or 3 injections before ConA, especially after 3 treatments; FIG. 10B
Method: Con A (13 mg/kg) was administered i.v. to BALB/c mice 18 hours before analysis (Bonder, C. S. et al. 2004. J. Immunol. 172: 45-53). Mice were intraperitoneally injected with the peptides of the invention 48 and 2 hours before ConA injection.
Blood analysis: 18 hours after Con A injection, blood was obtained by cardiac puncture for detection of serum alanine aminotransferase (ALT) and aspartate aminotransferase (AST). The presence of these two enzymes in serum is used as an index of hepatocellular injury. The detection of ALT and AST was performed by a commercial kit for ALT and AST (Bayer Diagnostics, Tarry town, NY, USA) using an automated Monarch Monoanalyzer 2000 (Allied, Lexington, Mass.).

BALB/C mice [5] = assay: TNBS-induced colitis model of inflammatory bowel disease (IBD); type: in vivo, mouse; details: 200 μg/mouse SC daily; day 7 after TNBS
Method: BALB/C mice, which were anesthetized for 5-10 min, received by intrarectal administration, 30 μl of a solution of 2,4,6-trinitrobenzene sulfonic acid (TNBS; 100 mg/kg) dissolved in 0.9% NaCl and mixed with an equal volume of ethanol (50% ethanol). Animals were killed 7 days after TNBS administration.
Wound fluid peptides were administered once daily by subcutaneous (SC) administration starting 1 day before the induction of colitis and every day for the next 7 days as follows:
Treatment with the wound fluid peptides was evaluated at day 7 by determination of macroscopic inflammation scores. The colon of each mouse was examined under a dissecting microscope to evaluate the macroscopic lesions according to the Wallace criteria. The Wallace score lists macroscopic colon lesions on a scale from 0 to 10 based on features reflecting inflammation, such as hyperemia, thickening of the bowel, and extent of ulceration (Wallace, J. L., et al. 1989, Gastroenterology, 96:29).

[6] = FIG. 1, peptides by implanted osmotic pump, 0.2 μg/hour for 7 days

## LSALEEYTKKLNTQ [peptide No. 2, residues 254-267 of Apo A-I; identified in wound fluids, then synthesized]
[1]; [6]
  inhibition of DTH response: hardly inhibited
T cells
  inhibition of T cell transmigration toward SDF-1α: did not show a significant inhibition
Jurkat and THP-1 cells
  inhibition of TNFα secretion by Jurkat and THP-1 cells compared to PMA/PHA alone: 10%
[2]
  inhibition of anti-CD3 antibody induced TNFα secretion from T cells: 40%
[3]
  inhibition of anti-CD3 antibody induced IFNγ secretion from T cells: ~30%
NF-κB
  NF-κB translocation to the nucleus: significant down-regulation
BALB/C mice [4]
  resistance to ConA induced hepatitis: marked resistance

## C[C@@H]1C[C@H]2[C@@H]3CCC4=CC(=O)C=C[C@]4(C)[C@@]3(F)[C@@H](O)C[C@]2(C)[C@@]1(O)C(=O)CO [Dexamethasone, reference compound]
[1]; [6]
  inhibition of DTH response: ~70%
[1]; FIG. 2, peptides subcutaneously 1 μg or 10 μg per mouse every day
  inhibition of DTH response: ~70%
BALB/C mice [5]
  Wallace score (macroscopic inflammation score, scale 0 to 10): 2.9±1
